Experimental data from ChEMBL document CHEMBL3639029, “Pyrrolopyrimidine compounds as inhibitors of CDK4/6” (2015).

Legend:
[1] = target: Cyclin-dependent kinase 4 (Homo sapiens, UniProt P11802); assay: Biological Assay: An assay for monitoring CDK4/cyclin D1-catalyzed phosphorylation of pRb at the Ser780 site was performed using TR-FRET in a 384-well format, and was used for IC50 determination and kinetic analysis. The reaction was carried out in a 30 uL volume containing 0.3 nM CDK4/cyclin D1, 150 nM biotin-pRb (773-924), 3 uM ATP, and 1.3% DMSO (or compound in DMSO) in the assay buffer (50 mM HEPES-Na, pH 7.5; 5 mM MgCl2, 1 mM DTT, 0.02% Tween-20, and 0.05% BSA). 3 uM ATP was added last to initiate the reaction. The reaction was quenched with 10 uL of 240 mM EDTA-Na (pH 8.0) after 60 min incubation at 22 C. The signal was developed by the addition of 40 uL detection solution containing 40 nM SA-APC, 143 ng/mL anti-phospho-pRb (S780) antibody, and 1 nM Eu-W1024 anti-rabbit IgG antibody in the detection buffer (50 mM HEPES-Na, pH 7.5, 60 mM EDTA-Na, pH 8.0, 0.05% BSA, and 0.1% Triton X-100). After 60 min incubation in the dark, the plate was read on Envision.
[2] = target: Cyclin-dependent kinase 1 (Homo sapiens, UniProt P06493); assay: IMAP-FP (Molecular Devices Trade Mark Technology) Endpoint Assay: A 384-well microtiter IMAP-FP (Molecular Devices Trade Mark Technology) endpoint assay was used for CDK1/cyclin B kinase activity measurements. The same assay was used for IC50 determination of small molecule inhibitors. In general, the kinase reactions were carried out in 20 uL volumes in the reaction solution, which is composed of 2 uL compound (in 20% DMSO), 8 uL CDK1/cyclin B in the 1x Reaction Buffer (Molecular Devices, Cat. No. R8139), 10 uL substrate mixture of Tamra Histone-H1 peptide (Molecular Devices, Cat. No. R7384) and ATP (Amersham Pharmacia, Cat. No. 27-2056-01) in the 1x Reaction Buffer with 1 mM DTT freshly added. The final reaction mixture contains compound (inhibitor) with the concentration varying from 0.005-10 uM, 2% DMSO, 0.25 nM CDK1/cyclin B, 100 nM Tamra Histone-H1 peptide, and 20 uM ATP.All reactions were run at room temperature in black 384-well flat-bottom Costar plates (Corning, Cat. No. 3710) for 120 min then were quenched.
Cyclin-dependent kinase 1, sequence (P06493 whole entry): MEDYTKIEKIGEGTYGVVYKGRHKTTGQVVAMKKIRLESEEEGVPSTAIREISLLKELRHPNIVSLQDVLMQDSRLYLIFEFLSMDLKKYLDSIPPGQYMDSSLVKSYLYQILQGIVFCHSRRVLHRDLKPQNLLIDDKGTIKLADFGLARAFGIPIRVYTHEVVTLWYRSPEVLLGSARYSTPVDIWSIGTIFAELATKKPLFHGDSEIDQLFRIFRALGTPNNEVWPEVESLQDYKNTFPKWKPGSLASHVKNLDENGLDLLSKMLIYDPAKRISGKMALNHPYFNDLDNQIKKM

Cyclin-dependent kinase 4, sequence (P11802 whole entry): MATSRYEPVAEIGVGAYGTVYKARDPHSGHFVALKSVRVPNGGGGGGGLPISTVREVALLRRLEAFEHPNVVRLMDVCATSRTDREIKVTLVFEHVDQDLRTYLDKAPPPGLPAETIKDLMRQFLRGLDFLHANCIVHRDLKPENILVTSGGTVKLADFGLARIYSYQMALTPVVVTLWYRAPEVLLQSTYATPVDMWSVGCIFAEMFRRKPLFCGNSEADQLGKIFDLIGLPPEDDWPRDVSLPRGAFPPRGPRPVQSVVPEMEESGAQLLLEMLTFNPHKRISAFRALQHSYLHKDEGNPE

## CN(C)C(=O)c1cc2cnc(Nc3ccc(N4CC5CCC(CC4=O)N5)cn3)nc2n1-c1ccc(C(C)(C)C#N)cc1 (configuration not stated)
[1]
  IC50: 5 nM
[2]
  IC50: > 15000 nM
